Reference: patent US9211310B2, “Use of a Chinese medicine composition in preparing medicaments for treating secondary prevention of myocardial infarction” (TASLY PHARMACEUTICAL GROUP CO., LTD, priority 2010, dated 2015)

System: patients after acute myocardial infarction
Test: TCM symptom score, total and single (chest pain, chest tightness, short breath, fatigue, palpitation, spontaneous perspiration, pale complexion), same clinical trial
Type: in vivo, human
Description: 3508 patients who were in accordance with the diagnostic standards of AMI for 28 days to 2 years and differentiated as Qi deficiency and blood stagnation syndrome by TCM were studied. 0.5 g Chinese medicine composition prepared by the method of EXAMPLE 1 (Coded as QSYQ) was administrated half an hour after meal, 3 times per day.
They included the overall survival time, angina pectoris score, TCM symptom score and life quality score, where angina pectoris score, TCM symptom score and life quality score were evaluated at randomization, in 1st, 3rd, 6th, 9th, 12th month after treatment and 18th month after follow-up.
The analysis method referred to the angina pectoris score.

[1] = 9 months after treatment-baseline, FAS
[2] = 9 months after treatment-baseline, PP
[3] = 12 months after treatment-baseline, FAS

CC(=O)Oc1ccccc1C(=O)O [Control group, aspirine]
chest pain score 0, percent of patients (6 months after treatment, PP): (42.93%)
chest pain score 3, number of patients (6 months after treatment, PP): 539
chest pain score 3, percent of patients (6 months after treatment, PP): (37.75%)
chest pain score 6, number of patients (6 months after treatment, PP): 272
chest pain score 6, percent of patients (6 months after treatment, PP): (19.05%)
chest pain score 9, number of patients (6 months after treatment, PP): 4
chest pain score 9, percent of patients (6 months after treatment, PP): (0.28%)
chest tightness score 0, number of patients (6 months after treatment, PP): 613
chest tightness score 0, percent of patients (6 months after treatment, PP): (42.93%)
chest tightness score 3, number of patients (6 months after treatment, PP): 539
chest tightness score 3, percent of patients (6 months after treatment, PP): (37.75%)
chest tightness score 6, number of patients (6 months after treatment, PP): 272
chest tightness score 6, percent of patients (6 months after treatment, PP): (19.05%)
chest tightness score 9, number of patients (6 months after treatment, PP): 4
chest tightness score 9, percent of patients (6 months after treatment, PP): (0.28%)
change of chest pain score 0, number of patients [1]: 1022
change of chest pain score 0, percent of patients [1]: (59.80%)
change of chest pain score 3, number of patients [1]: 463
change of chest pain score 3, percent of patients [1]: (27.09%)
change of chest pain score 6, number of patients [1]: 124
change of chest pain score 6, percent of patients [1]: (7.26%)
change of chest pain score 9, number of patients [1]: 6
change of chest pain score 9, percent of patients [1]: (0.35%)
change of chest pain score −3, number of patients [1]: 81
change of chest pain score −3, percent of patients [1]: (4.74%)
change of chest pain score −6, number of patients [1]: 13
change of chest pain score −6, percent of patients [1]: (0.76%)
change of chest pain score −9, number of patients [1]: 0
change of chest pain score −9, percent of patients [1]: (0.00%)
change of chest tightness score 0, number of patients [1]: 1007
change of chest tightness score 0, percent of patients [1]: (58.92%)
change of chest tightness score 3, number of patients [1]: 534
change of chest tightness score 3, percent of patients [1]: (31.25%)
change of chest tightness score 6, number of patients [1]: 68
change of chest tightness score 6, percent of patients [1]: (3.98%)
change of chest tightness score 9, number of patients [1]: 4
change of chest tightness score 9, percent of patients [1]: (0.23%)
change of chest tightness score −3, number of patients [1]: 93
change of chest tightness score −3, percent of patients [1]: (5.44%)
change of chest tightness score −6, number of patients [1]: 3
change of chest tightness score −6, percent of patients [1]: (0.18%)
change of chest tightness score −9, number of patients [1]: 0
change of chest tightness score −9, percent of patients [1]: (0.00%)
change of chest pain score 0, number of patients [2]: 826
change of chest pain score 0, percent of patients [2]: (58.58%)
change of chest pain score 3, number of patients [2]: 409
change of chest pain score 3, percent of patients [2]: (29.01%)
change of chest pain score 6, number of patients [2]: 106
change of chest pain score 6, percent of patients [2]: (7.52%)
change of chest pain score 9, number of patients [2]: 4
change of chest pain score 9, percent of patients [2]: (0.28%)
change of chest pain score −3, number of patients [2]: 58
change of chest pain score −3, percent of patients [2]: (4.11%)
change of chest pain score −6, number of patients [2]: 7
change of chest pain score −6, percent of patients [2]: (0.50%)
change of chest pain score −9, number of patients [2]: 0
change of chest pain score −9, percent of patients [2]: (0.00%)
change of chest tightness score 0, number of patients [2]: 801
change of chest tightness score 0, percent of patients [2]: (56.81%)
change of chest tightness score 3, number of patients [2]: 476
change of chest tightness score 3, percent of patients [2]: (33.76%)
change of chest tightness score 6, number of patients [2]: 62
change of chest tightness score 6, percent of patients [2]: (4.40%)
change of chest tightness score 9, number of patients [2]: 3
change of chest tightness score 9, percent of patients [2]: (0.21%)
change of chest tightness score −3, number of patients [2]: 65
change of chest tightness score −3, percent of patients [2]: (4.61%)
change of chest tightness score −6, number of patients [2]: 3
change of chest tightness score −6, percent of patients [2]: (0.21%)
change of chest tightness score −9, number of patients [2]: 0
change of chest tightness score −9, percent of patients [2]: (0.00%)
chest pain score 0, number of patients (9 months after treatment, FAS): 791
chest pain score 0, percent of patients (9 months after treatment, FAS): (46.04%)
chest pain score 3, number of patients (9 months after treatment, FAS): 618
chest pain score 3, percent of patients (9 months after treatment, FAS): (35.97%)
chest pain score 6, number of patients (9 months after treatment, FAS): 305
chest pain score 6, percent of patients (9 months after treatment, FAS): (17.75%)
chest pain score 9, number of patients (9 months after treatment, FAS): 4
chest pain score 9, percent of patients (9 months after treatment, FAS): (0.23%)
chest tightness score 0, number of patients (9 months after treatment, FAS): 791
chest tightness score 0, percent of patients (9 months after treatment, FAS): (46.04%)
chest tightness score 3, number of patients (9 months after treatment, FAS): 618
chest tightness score 3, percent of patients (9 months after treatment, FAS): (35.97%)
chest tightness score 6, number of patients (9 months after treatment, FAS): 305
chest tightness score 6, percent of patients (9 months after treatment, FAS): (17.75%)
chest tightness score 9, number of patients (9 months after treatment, FAS): 4
chest tightness score 9, percent of patients (9 months after treatment, FAS): (0.23%)
chest pain score 0, number of patients (9 months after treatment, PP): 661
chest pain score 0, percent of patients (9 months after treatment, PP): (46.71%)
chest pain score 3, number of patients (9 months after treatment, PP): 519
chest pain score 3, percent of patients (9 months after treatment, PP): (36.68%)
chest pain score 6, number of patients (9 months after treatment, PP): 233
chest pain score 6, percent of patients (9 months after treatment, PP): (16.47%)
chest pain score 9, number of patients (9 months after treatment, PP): 2
chest pain score 9, percent of patients (9 months after treatment, PP): (0.14%)
chest tightness score 0, number of patients (9 months after treatment, PP): 661
chest tightness score 0, percent of patients (9 months after treatment, PP): (46.71%)
chest tightness score 3, number of patients (9 months after treatment, PP): 519
chest tightness score 3, percent of patients (9 months after treatment, PP): (36.68%)
chest tightness score 6, number of patients (9 months after treatment, PP): 233
chest tightness score 6, percent of patients (9 months after treatment, PP): (16.47%)
chest tightness score 9, number of patients (9 months after treatment, PP): 2
chest tightness score 9, percent of patients (9 months after treatment, PP): (0.14%)
change of chest pain score 0, number of patients [3]: 962
change of chest pain score 0, percent of patients [3]: (56.29%)
change of chest pain score 3, number of patients [3]: 511
change of chest pain score 3, percent of patients [3]: (29.90%)
change of chest pain score 6, number of patients [3]: 150
change of chest pain score 6, percent of patients [3]: (8.78%)
change of chest pain score 9, number of patients [3]: 7
change of chest pain score 9, percent of patients [3]: (0.41%)
change of chest pain score −3, number of patients [3]: 70
change of chest pain score −3, percent of patients [3]: (4.10%)
change of chest pain score −6, number of patients [3]: 9
change of chest pain score −6, percent of patients [3]: (0.53%)
change of chest pain score −9, number of patients [3]: 0
change of chest pain score −9, percent of patients [3]: (0.00%)
change of chest tightness score 0, number of patients [3]: 933
change of chest tightness score 0, percent of patients [3]: (54.59%)
change of chest tightness score 3, number of patients [3]: 598
change of chest tightness score 3, percent of patients [3]: (34.99%)
change of chest tightness score 6, number of patients [3]: 87
change of chest tightness score 6, percent of patients [3]: (5.09%)
